pIC50: −log10 of the molar value.
What was measured:
PC9 = test: activity against cisplatin sensitive lung tumour PC9; format: cell-based, human; conditions: very preliminary data
From the text: In Table 1, JAM and CI-80-13S are ovarian tumours, HeLa is a cervical tumour and MM96 is a melanoma In Table 2, all the tumours are ovarian tumours. […] In this regard, PC9 is a lung tumour and its derivation is discussed in Hong et al., 1993, Cancer Research 53 3302-3307 and Bungo et al., 1990, Cancer Research 50 2549-2553.

[1] = test system: M5076 Reticulum Cell Sarcoma; conditions: Berners-Price et al. 1990; cited from earlier work
tumour models in mice = conditions: reference EP0198696; cited from earlier work
P388 leukaemia = conditions: i.p. P388 leukaemia; Berners-Price et al. 1990; cited from earlier work
human tumour cell lines = test: selectivity of cytotoxicity over all cell lines evaluated (Tables 1 and 2); format: cell-based
From the text: The origins of the human melanoma cell line MM96 has been described in Whitehead et al., 1973, Pigment Cell 1 383-389. The cell line JAM is described in Ward et al., 1987, Cancer Res. 47 2662-2667. The origin of the ovarian tumour line CI-80-13S has been described in Bertoncello et al., 1985, Aust. J. Exp. Biol. Med. Sci. 63 241-243. The origin of the cervical carcinoma cell line HeLa has been described in Maynard et al., 1986, Cancer Res. 46 5009-5093. The subclone HeLa-S1a was derived by stably transfecting HeLa with PAI-2 cDNA described in Schleuning et al., 1987, Mol. Cell. Biol. 7 4564-4567 in the sense orientation under the control of the cyto-megalovirus (CMV) promoter. The stably infected subclone was isolated following G418 selection and expression of the PAI-2 transgene characterised by immunoblot analysis and quantitated by ELISA. All of these cell lines have been used before for carrying out cell survival assays referred to in FIGS. 1-4. Cells were cultured at 37° in 5% CO2 /air in Roswell Park Memorial Institute medium 1640 containing 5% foetal calf serum, 100 μg/ml streptomycin, 100 IU/ml penicillin, 1 mM pyruvate, 50 μM nicotinamide and 3 mM HEPES.
Cells were seeded in microtitre plates (lowest number for fastest growing cells: 1000 HeLa, 2000 MM96, […] CI-80-13S cells per 6 mm well in 100 μl), normally but not necessarily allowed to attach overnight, then 5 dilutions of the drug were added to duplicate wells. After an overnight incubation to equilibrate the pH, the lids were quickly taped around the edge to prevent evaporation. The plates were incubated for 5-7 days, until the controls were nearly confluent. Cell growth/morphology was scored at each dose visually (inverted microscope). The medium was then replaced by 50 μl fresh medium containing 2 u/Ci/ml [methyl-3H]-thymidine (5 Ci/mmol; Radiochemical Centre, Amersham, Bucks., U.K.) and incubated for 2-4 hr. The cells were washed with PBS (0.1 M NaCl, 50 mM phosphate, pH 7.2), detached with 100 μl of PBS containing 0.2 mg/ml trypsin and 10 mM EDTA, and washed onto a glass fibre GF/a filter mat with water using a cell harvester. Later, wells were checked under the microscope to ensure complete detachment and washout. Radioactivity was determined in an LKB Beta Plate counter and the results plotted as log % control cpm versus dose. The ID50 (dose required to give 50% survival) was interpolated from this survival curve.
(§1) The sensitive CH1 cell line was established from a patient with drug-sensitive disease and its resistant variant (CH1-cisR) was generated by prolonged in vitro exposure to cisplatin during which it acquired more efficient DNA repair as described in Kelland et al., 1992, Cancer Research 52 3857-3864. The sensitive 41M cell line was also established from a patient with a sensitive tumor and its resistant variant (41M-cisR) was generated in the same way but acquired decreased uptake across the cell membrane (Kelland et al., 1992, supra). The intrinsically-resistant SKOV-3 ovarian carcinoma cell line has high glutathione levels as described in Mistry et al., 1991, Brit. J. Cancer 64 215-220 and reduced levels of bi-functional cisplatin-DNA lesions as described in McKeage et al., 1994, Brit. J. Cancer 69 1-7. The characteristics of the cell line pairs CH1/CH1 cisR, 41M/41McisR and 41M/SKOV3 are described in Table 3.
The cytotoxicity assay used sulforhodamine B which stains the basic amino acids. Cells (5000 or 2500 for SKOV-3) were seeded into 96 well microtitre plates (Linbro, Flow Laboratories Inc., USA) in 0.1 ml of medium. After an overnight incubation, the metal phosphine compounds were dissolved in 0.9% NaCl or ethanol and diluted with medium, were added at concentrations ranging from 0.005 to 50 μM to quadruplicate wells. After 96 hrs incubation, the medium was removed and cells were fixed in 0.2 ml of cold 10% (w/v) trichloroacetic acid (May & Baker Ltd., Dagenham, England) for 30 mins at 4° C. The plates were washed five times with tap water. […]

[2] = test system: 41M, 41M-cisR, SKOV-3, CH1, CH1-cisR; test: growth inhibition of cisplatin-sensitive and -resistant ovarian cancer cell lines (Table 2, FIG. 5); format: cell-based, human
From the text: as §1
The cytotoxicity assay used sulforhodamine B which stains the basic amino acids. Cells (5000 or 2500 for SKOV-3) were seeded into 96 well microtitre plates (Linbro, Flow Laboratories Inc., USA) in 0.1 ml of medium. After an overnight incubation, the metal phosphine compounds were dissolved in 0.9% NaCl or ethanol and diluted with medium, were added at concentrations ranging from 0.005 to 50 μM to quadruplicate wells. After 96 hrs incubation, the medium was removed and cells were fixed in 0.2 ml of cold 10% (w/v) trichloroacetic acid (May & Baker Ltd., Dagenham, England) for 30 mins at 4° C. The plates were washed five times with tap water. Then 0.1 ml of 0.4% (w/v) sulforhodamine B (Sigma Chemical Co., St. Louis, USA) dissolved in 1% acetic acid (Ajax Chemicals, Australia) was added to the wells and left to stand at room temperature for 15 mins. The plates were then washed five times with 1% acetic acid and left to dry overnight. The next morning, 0.1 ml of 10 mM Tris buffer (Sigma Chemical Co., St. Louis, USA) was then added to each plate to solubilise the dye. Absorbance was read at a wavelength of 570 nm using a 96 well plate reader Dynatech MR 5000 plate reader. Absorbance of treatment cells was expressed as a percentage of positive (drug-free) controls. The results were plotted as percentage growth versus drug concentration. The drug concentration resulting in a 50% growth inhibition was termed the IC50. The passage numbers used for the cytotoxicity assay from each cell line were, CH1 passages 50-58, CH1 cis-R passages 77-83, 41M passages 50-63, 41M cisR 81-92 and SKOV-3 passages 106-128.

For `[Cl-].c1cc([P+]2(c3ccncc3)CC[P+](c3ccncc3)(c3ccncc3)[Au-3]23[P+](c2ccncc2)(c2ccncc2)CC[P+]3(c2ccncc2)c2ccncc2)ccn1` [[Au(d4pype)2]Cl], the pIC50 (PC9; PC9 lung tumour) is listed as 4.60, the “activity against PC9” value (PC9; cisplatin sensitive lung tumour) is listed as “modest activity” and the activity in mice [1] is listed as “inactive”. The “anti-tumour activity (EP0198696)” value (tumour models in mice) was “insignificant anti-tumour activity”, the activity in mice (P388 leukaemia) was “inactive” and the “number of cell lines against which cytotoxic” value (human tumour cell lines) was “cytotoxic to only four of the nine cell-lines tested”. The degree of selectivity (human tumour cell lines; Tables 1 and 2) was “the greatest selectivity” and the “selectivity and cytotoxicity in ovarian cancer cell-lines (FIG. 5)” value [2] was “exhibits the greatest selectivity killing only the CH1/CH1 cisR pair”.

Source: patent US6218378A, “Anti-tumor agents comprising pyridyl-substituted metal-diphosphine complex” (priority 1994, dated 2001)
